Data taken from patent US10251881B2, “Particulate materials” (priority 2002, dated 2019).
Structures can show the parent of a compound that is named as a salt.

Experiments:
Assay type in all cases: physicochemical
[1] = Flocculation volume of particulate drug suspended in propellant (HFA 134a or HFA 227ea)
Description: Flocculation volume, sometimes referred to as “sedimentation volume”, can be measured by a conventional and relatively simple method. The substance under test, in particulate form, is suspended in the desired fluid vehicle at a suitable concentration. The mixture should be well agitated (typically, simply by shaking) to ensure a uniform dispersion of particles in the fluid at the start of measurement. Immediately after agitation ceases, timing begins. The mixture is left to stand, usually under ambient conditions, and the degree of settling or creaming of the solid observed over time. The flocculation volume of the mixture at a given point in time is the volume of fluid which is still occupied by the particulate dispersion, expressed as a percentage of the total fluid volume. A higher flocculation volume thus indicates less settling/creaming, which indicates improved performance. All references herein to flocculation volumes, unless otherwise stated, are to measurements made at 22° C. […] Measurements were taken at 22° C.

[2] = Particle size of the powders (AEROSIZER, SYMPATEC); settings: powder; for MMAD: AEROSIZER
Description: Particle sizes may be measured for instance using (a) an AEROSIZER™ time-of-flight instrument (which gives an aerodynamic equivalent particle diameter, MMAD) or (b) a laser diffraction sensor such as the HELOS™ system available from SYMPATEC™ GmbH, Germany (which provides a geometric projection equivalent MMD). MMADs may also be assessed using a cascade impactor. Volume mean diameters may be obtained in both cases using commercially available software packages.

[3] = Particle size of the powders (AEROSIZER, SYMPATEC)
[4] = HFA 134a, 1% w/v, 22° C., after 10 minutes
[5] = HFA 134a, averaged over the first 2 minutes
[6] = HFA 227ea, averaged over the first 2 minutes
[7] = HFA 134a, averaged over the first minute
[8] = HFA 227ea, 1% w/v, 22° C., after 5 minutes
[9] = HFA 227ea, averaged over the first minute
[10] = HFA 227ea, 1% w/v, 22° C., after 10 minutes
[11] = HFA 227ea, 1% w/v, 22° C., after 1 minute

Row | Compound | flocculation volume [1, 4] | rate of change in flocculation volume (flocculation rate) [1, 5] [% per minute] | rate of change in flocculation volume (flocculation rate) [1, 6] [% per minute] | MMD ([2]; SYMPATEC) [μm] | further results
1 | CCCCCCCCCCCCCCCC(=O)OC1CCCn2c1nc(C)c(CCN1CCC(c3noc4cc(F)ccc34)CC1)c2=O (single isomer, unassigned) [risperidone-(9-hydroxy)-palmitate sample A] | 100% | 0 | −2.5 | 2.95 | –
2 | CCCCCCCCCCCCCCCC(=O)OC1CCCn2c1nc(C)c(CCN1CCC(c3noc4cc(F)ccc34)CC1)c2=O (single isomer, unassigned) [risperidone-(9-hydroxy)-palmitate sample B] | 100% | 0 | −3 | 2.5 | –
3 | CCCCCCCCCCCCCCCC(=O)OC1CCCn2c1nc(C)c(CCN1CCC(c3noc4cc(F)ccc34)CC1)c2=O (single isomer, unassigned) [risperidone-(9-hydroxy)-palmitate sample C] | greater than 80% | −1 | −3 | 3.5 | –
4 | OCc1cc(C(O)CNCCCCCCOCCCCc2ccccc2)ccc1O (single isomer, unassigned) [salmeterol xinafoate sample A, Salmeterol xinafoate] | – | −3 | −11 | – | MMAD [2]: 5.3 μm
5 | OCc1cc(C(O)CNCCCCCCOCCCCc2ccccc2)ccc1O (single isomer, unassigned) [salmeterol xinafoate sample B, salmeterol xinafoate] | greater than 98% | −0.2 | −19 | – | flocculation volume ([1]; HFA 134a, after 24 hours standing): greater than 98%; MMAD [2]: 1.6 μm
6 | OCc1cc(C(O)CNCCCCCCOCCCCc2ccccc2)ccc1O (single isomer, unassigned) [salmeterol xinafoate sample C, salmeterol xinafoate] | 30% | – | – | – | flocculation volume ([1]; HFA 134a, 1% w/v, 22° C., after 3 minutes): below 40%; rate of change in flocculation volume (flocculation rate) [1, 7]: −38 % per minute; flocculation volume [1, 8]: below 35%; rate of change in flocculation volume (flocculation rate) [1, 9]: −53 % per minute; MMAD [2]: 1.1 μm
7 | CN1C[C@H](C(=O)N[C@]2(C)O[C@@]3(O)[C@@H]4CCCN4C(=O)[C@H](Cc4ccccc4)N3C2=O)C[C@@H]2c3cccc4[nH]cc(c34)C[C@H]21 [DHE SEDS® product, dihydroergotamine mesylate] | – | – | 0 | – | flocculation volume [1, 10]: 100%; creaming ([1]; HFA 227ea, after 24 hours standing): no visible creaming; MMAD [2]: 1.25 μm
8 | CN1C[C@H](C(=O)N[C@]2(C)O[C@@]3(O)[C@@H]4CCCN4C(=O)[C@H](Cc4ccccc4)N3C2=O)C[C@@H]2c3cccc4[nH]cc(c34)C[C@H]21 [DHE micronized sample, dihydroergotamine mesylate] | – | – | – | – | flocculation volume [1, 11]: less than 20%; flocculation volume [1, 8]: less than 10%; rate of change in flocculation volume (flocculation rate) [1, 9]: −90 % per minute; MMD ([2]; instrument not stated): 15.1 μm
9 | CC(C)C[C@H]1C(=O)N2CCC[C@H]2[C@]2(O)O[C@](NC(=O)[C@@H]3C=C4c5cccc6[nH]c(Br)c(c56)C[C@H]4N(C)C3)(C(C)C)C(=O)N12 [bromocriptine mesylate sample B, Bromocriptine mesylate] | 53% | – | – | – | flocculation volume [1, 10]: 95%
10 | CN1C[C@H](C(=O)N[C@]2(C)O[C@@]3(O)[C@@H]4CCCN4C(=O)[C@H](Cc4ccccc4)N3C2=O)C[C@@H]2c3cccc4[nH]cc(c34)C[C@H]21 [crystalline DHE (Examples 9), dihydroergotamine mesylate] | – | – | – | – | VMD ([2]; SYMPATEC): 2.8 μm; bulk powder density [3]: 0.14 g/mL
11 | CCC(=O)O[C@]1(C(=O)SCF)[C@H](C)C[C@H]2[C@@H]3C[C@H](F)C4=CC(=O)C=C[C@]4(C)[C@@]3(F)[C@@H](O)C[C@@]21C [fluticasone propionate sample A, fluticasone propionate] | about 50% | −20 | – | 2.3 | –
12 | CCC(=O)O[C@]1(C(=O)SCF)[C@H](C)C[C@H]2[C@@H]3C[C@H](F)C4=CC(=O)C=C[C@]4(C)[C@@]3(F)[C@@H](O)C[C@@]21C [fluticasone propionate sample B, fluticasone propionate] | greater than 90% | −1 | −0.5 | 5.6 | –
13 | CCC(=O)O[C@]1(C(=O)SCF)[C@H](C)C[C@H]2[C@@H]3C[C@H](F)C4=CC(=O)C=C[C@]4(C)[C@@]3(F)[C@@H](O)C[C@@]21C [fluticasone propionate sample C, fluticasone propionate] | – | – | 0 | 2.3 | –
14 | CCC(=O)O[C@]1(C(=O)SCF)[C@H](C)C[C@H]2[C@@H]3C[C@H](F)C4=CC(=O)C=C[C@]4(C)[C@@]3(F)[C@@H](O)C[C@@]21C [fluticasone propionate sample D, fluticasone propionate] | below 30% | – | – | – | rate of change in flocculation volume (flocculation rate) [1, 7]: −68 % per minute; flocculation volume ([1]; HFA 227ea, 1% w/v, 22° C., after 3 minutes): less than 30%; rate of change in flocculation volume (flocculation rate) [1, 9]: −40 % per minute; MMD ([2]; instrument not stated): 2.0 μm
15 | CCCCCCCCCCCCCCCC(=O)OC1CCCn2c1nc(C)c(CCN1CCC(c3noc4cc(F)ccc34)CC1)c2=O (centres unmarked) [risperidone-(9-hydroxy)-palmitate] | – | – | – | – | flocculation volume ([1]; HFA 134a, 1% w/v, 22° C., after 1 minute): less than 20%; rate of change in flocculation volume (flocculation rate) [1, 7]: −152 % per minute; flocculation volume [1, 11]: less than 20%; rate of change in flocculation volume (flocculation rate) [1, 9]: −117 % per minute; MMD ([2]; instrument not stated): 8.1 μm
16 | CC(C)(C)NCC(O)c1ccc(O)c(CO)c1 (centres unmarked) [salbutamol micronized sample, salbutamol] | – | – | – | – | flocculation volume ([1]; HFA 134a, 1% w/v, 22° C., after 2 minutes): less than 20%; rate of change in flocculation volume (flocculation rate) [1, 7]: −84 % per minute; flocculation volume ([1]; HFA 227ea, 1% w/v, 22° C., after 2 minutes): less than 20%; rate of change in flocculation volume (flocculation rate) [1, 9]: −55 % per minute; MMD ([2]; instrument not stated): 14.5 μm
17 | Salbutamol sulphate [salbutamol sulphate SEDS® product] | greater than 70% | −10 | −5 | 3.95 | flocculation volume ([1]; HFA 227ea, 1% w/v, 22° C., after 8 minutes): greater than 70%; flocculation volume [1, 10]: greater than 60%
